# Structures can show the parent of a compound that is named as a salt.
# Tested on: sarcopenia-induced mice
# Assay: Muscle weight measurement, sarcopenia-induced mouse
# Format: in vivo
# Details: hindlimb-immobilized mice; oral 17, 50, 150 mg/kg/day
# Protocol: In order to confirm a muscle strength enhancement effect of alverine citrate, sarcopenia-induced mice were administered with alverine citrate and tested for running ability. After the treadmill running test, muscle weight was measured. In particular, the hindlimb of 10 week-old C57BL/6 male mice was immobilized using a surgical stapler (Autosuture Royal 35W stapler). The staples were removed after 5 days and the mice were allowed to remobilize for 3 days. After that, running ability was measured. The mice were dosed orally with 200 μL of alverine citrate per mice at a dose of 17 mg/kg/day (AC-L), 50 mg/kg/day (AC-M) or 150 mg/kg/day (AC-H), and these mice were set as the experimental group. Untreated sarcopenia-induced mice were set as the control group (FIG. 8). The 10 week-old C57BL/6 male mice were purchased from Daehan BioLink. For muscle weight measurement, the GA and TA muscles in the hindlimb of the mice in each group were removed and weighed.
smiles,measurement,value
CCN(CCCc1ccccc1)CCCc1ccccc1 [alverine citrate],"GA and TA muscle weights, dependence on dose",also increased

# Source: patent US20230149326A1, “PHARMACEUTICAL COMPOSITION FOR PREVENTING OR TREATING MUSCULAR WEAKNESS-RELATED DISEASES COMPRISING ALVERINE, 4-HYDROXY ALVERINE, DERIVATIVE THEREOF, OR PHARMACEUTICALLY ACCEPTABLE SALT THEREOF” (AVENTI INC., priority 2020, published 2023)
